Measured values: patent US5580956A, “Phospholipase C-inhibiting peptides” (priority 1992, dated 1996)
≈ marks a conversion by molar mass, not a printed value. Peptide text beside a SMILES is read from it. * marks the point of attachment. Butanoyl(2-Et) = CCC(CC)C(=O)*; Hexanoyl = CCCCCC(=O)*

How the values were obtained:
[1] = target: T1, PLC-γ1 (Bos taurus, UniProt P08487); assay: PLC-inhibiting activity (release of [3H]inositol phosphate from [3H]PIP2); type: biochemical, bovine; details: PI-PLC-γ1, 37° C., 10 minutes, read-out: Inhibition rate (%)
T1 construct: A sample (PLC-γ1) was prepared from bovine thymus according to the method of Y. Homma et al; from tissue; host or cells: bovine thymus
T1 sequence (P08487 1-1291): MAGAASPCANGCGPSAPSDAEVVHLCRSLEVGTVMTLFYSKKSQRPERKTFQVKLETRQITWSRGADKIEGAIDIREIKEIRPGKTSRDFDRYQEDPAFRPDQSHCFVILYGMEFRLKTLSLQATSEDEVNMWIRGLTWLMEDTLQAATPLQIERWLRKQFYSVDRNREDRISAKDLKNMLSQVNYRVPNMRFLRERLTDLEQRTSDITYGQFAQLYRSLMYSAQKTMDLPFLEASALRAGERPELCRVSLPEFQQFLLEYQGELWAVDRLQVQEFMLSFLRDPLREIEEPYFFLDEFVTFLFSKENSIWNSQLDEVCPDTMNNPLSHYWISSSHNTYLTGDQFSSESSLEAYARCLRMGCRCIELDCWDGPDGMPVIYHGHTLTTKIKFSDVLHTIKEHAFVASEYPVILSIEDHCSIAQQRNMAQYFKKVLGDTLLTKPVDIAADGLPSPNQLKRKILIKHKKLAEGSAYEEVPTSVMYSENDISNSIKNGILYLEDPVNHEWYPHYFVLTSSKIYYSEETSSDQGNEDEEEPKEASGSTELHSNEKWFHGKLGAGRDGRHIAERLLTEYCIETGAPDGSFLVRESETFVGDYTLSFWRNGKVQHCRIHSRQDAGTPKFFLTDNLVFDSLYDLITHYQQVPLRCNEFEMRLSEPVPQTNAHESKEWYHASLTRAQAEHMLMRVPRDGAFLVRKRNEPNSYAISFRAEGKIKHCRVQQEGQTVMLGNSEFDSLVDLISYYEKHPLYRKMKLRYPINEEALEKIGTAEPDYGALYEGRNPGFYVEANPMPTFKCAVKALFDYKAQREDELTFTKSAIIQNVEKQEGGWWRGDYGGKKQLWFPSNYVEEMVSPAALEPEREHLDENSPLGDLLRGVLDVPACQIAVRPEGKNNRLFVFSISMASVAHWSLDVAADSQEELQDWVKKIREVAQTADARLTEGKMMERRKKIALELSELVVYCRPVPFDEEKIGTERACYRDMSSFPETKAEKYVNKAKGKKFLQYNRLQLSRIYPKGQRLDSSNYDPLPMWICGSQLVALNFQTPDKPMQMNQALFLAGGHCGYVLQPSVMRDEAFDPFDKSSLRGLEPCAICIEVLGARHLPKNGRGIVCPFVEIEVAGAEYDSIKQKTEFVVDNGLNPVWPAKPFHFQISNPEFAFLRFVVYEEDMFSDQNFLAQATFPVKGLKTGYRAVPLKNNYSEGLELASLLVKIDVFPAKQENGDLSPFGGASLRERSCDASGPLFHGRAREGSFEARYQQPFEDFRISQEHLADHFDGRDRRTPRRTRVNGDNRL
Method: A sample (PLC-γ1) was prepared from bovine thymus according to the method of Y. Homma et al. described in Biochemical Journal [(Biochem. J.), 269, 13 (1990)]. A solution having the composition listed in Table 1 below was prepared in advance on the ice and the reaction was begun with heating to 37° C. After incubation for 10 minutes, 2 ml of a solution mixture of chloroform/methanol (2:[…]) was added thereto to stop the reaction. The resulting inositol phosphate was extracted with 0.5 ml of 1N hydrochloric acid. Two-phase distribution was carried out by centrifugation (2000×g, 3 minutes), and the amount of ^3 H contained in 0.7 ml of the supernatant was measured with scintillation counter. […] The obtained value of specific radioactivity was defined as "A", the value of specific radioactivity obtained when an equivalent amount of water was added instead of the aqueous solution of the test peptide was defined as "B", the value of specific radioactivity obtained when an equivalent amount of water was added instead of the sample and the aqueous solution of the test peptide was defined as "C", and the inhibition rate (X) was determined according to the following equation. X(%)=[…]

[2] = test system: KMS-4 cells; assay: Cell proliferation-inhibiting activity (BrdU incorporation, Amersham Cell Proliferation Detection Kit); type: cell-based; details: Concentration 31 μM, 17 hours with peptide, BrdU-stained cells
Method: The following procedure was carried out with an Amersham Cell Proliferation Detection Kit. First, cells [KMS-4; M. Nanba et al., International Journal of Cancer, 32, 697 (1983)] were suspended in a DMEM culture medium (product of Nissui Seiyaku) containing 10% fetal calf serum to a concentration of 1-2×10^4 cells/ml, and 1 ml of the above-mentioned cell suspension was put into each well of a 24-well plate (product of Corning Co.). The cells were cultured for 2 days in a CO2 incubator (37° C., 5% CO2). Next, the culture medium was exchanged with a DMEM medium containing 10% fetal calf serum, and then the test peptide was added thereto and culturing was carried out for 17 hours. The culture medium was again exchanged with a serum-free DMEM medium, 0.5 ml of a solution of the reagents labelled 5-bromo-2'-deoxyuridine (BrdU) and 5-fluoro-2'-deoxyuridine (FdU) [10:1] diluted 1000-fold with the same medium was added to each well, and cultured for 2 hours. The culture medium was removed, and the cells were immobilized with an acetic acid/ethanol solution. The immobilized cells were stained according to the method for the Amersham Cell Proliferation Kit, and then further stained with a 1% Giemsa solution (product of Merck Co.). The number of cells incorporating BrdU and the total cell count within 1 field of vision of the microscope (approximately 200 cells) were determined, and the proportion (%) of stained cells per field of vision was calculated. Furthermore, the same procedure was repeated 10 times, and the average value thereof was defined as the cell proliferation activity (%). The cell proliferation-inhibiting activity was calculated in the following manner. The proliferation activity without addition of peptide was defined as "A", the proliferation activity with addition of the test peptide was defined as "B", and the cell proliferation inhibition rate (X) was determined according to the following equation. X (%)=[…]

[3] = test system: Bacillus subtilis No. 10107; type: cell-based; details: No. 10107, pH 7
Method: (§1) The antibacterial activity was determined by the agar dilution method using a culture medium (pH 7.0) containing 3 g/l bactotrypton (product of Difco Co.), 1 g/l meat extract, 1 g/l glucose and 16 g/l agar.

[4] = test system: Enterococcus faecium ATCC10541; type: cell-based; details: ATCC10541, pH 7
Method: as §1

[5] = test system: Proteus vulgaris ATCC6897; type: cell-based; details: ATCC6897, pH 7
Method: as §1

[6] = test system: Pseudomonas aeruginosa Bin H No. 1; type: cell-based; details: Bin H No. 1, pH 7
Method: as §1

[7] = test system: Salmonella typhi ATCC9902; type: cell-based; details: agar dilution, medium pH 7.0
Method: as §1

[8] = test system: Shigella sonnei ATCC9290; assay: Antibacterial activity, agar dilution method; type: cell-based; details: medium pH 7.0
Method: as §1

Molecule | inhibition at 130 µM (stock) ([1]; Concentration 130 μM (aqueous solution of test peptide)) | Cell proliferation inhibition rate (%) [2] | MIC [3] | MIC [4] | MIC [5] | MIC [6] | MIC [7] | MIC [8] | inhibition at 160 µM (stock) ([1]; Concentration 160 μM (aqueous solution of test peptide)) | inhibition at 630 µM (stock) ([1]; Concentration 630 μM (aqueous solution of test peptide))
CCCCCC(=O)N[C@@H](CC(C)C)C(=O)N[C@@H](Cc1ccc(O)cc1)C(=O)N[C@@H](CCCNC(=N)N)C(=O)N[C@@H](CCCCN)C(=O)N[C@@H](CCSC)C(=O)N[C@@H](CCCNC(=N)N)C(=O)N[C@@H](CC(C)C)C(=O)N[C@@H](CCCNC(=N)N)C(=O)N[C@@H](Cc1ccc(O)cc1)C(=O)N1CCC[C@H]1C(=O)N[C@H](C(N)=O)C(C)C [(I-27), CH3 (CH2)4 CO-Leu-Tyr-Arg-Lys-Met-Arg-Leu-Arg-Tyr-Pro-Val-NH2] (Hexanoyl-LYRKMRLRYPV-NH2) | 35% | 28% | 83 µg/mL (≈ 52.1 µM) | 83 µg/mL (≈ 52.1 µM) | 83 µg/mL (≈ 52.1 µM) | 42 µg/mL (≈ 26.4 µM) | 83 µg/mL (≈ 52.1 µM) | 83 µg/mL (≈ 52.1 µM) | – | –
Ac-YRKMRLRY-NH2 [Compound (I-10), CH3 CO-Tyr-Arg-Lys-Met -Arg-Leu-Arg-Tyr-NH2] | – | – | 83 µg/mL | 83 µg/mL | 83 µg/mL | 83 µg/mL | – | – | 26% | –
CCC(CC)C(=O)N[C@@H](CC(C)C)C(=O)N[C@@H](Cc1ccc(O)cc1)C(=O)N[C@@H](CCCNC(=N)N)C(=O)N[C@@H](CCCCN)C(=O)N[C@@H](CCSC)C(=O)N[C@@H](CCCNC(=N)N)C(=O)N[C@@H](CC(C)C)C(=O)N[C@@H](CCCNC(=N)N)C(=O)N[C@@H](Cc1ccc(O)cc1)C(=O)N1CCC[C@H]1C(=O)N[C@H](C(N)=O)C(C)C [(I-20), (CH3 CH2)2 CHCO-Leu-Tyr-Arg-Lys-Met-Arg-Leu-Arg-Tyr-Pro-Val-NH2] ({Butanoyl(2-Et)}-LYRKMRLRYPV-NH2) | – | 44% | – | – | 83 µg/mL (≈ 52.1 µM) | 83 µg/mL (≈ 52.1 µM) | – | – | – | 74%
